# Assay results taken from ChEMBL document CHEMBL1150017, “A convenient synthesis of sulfated and sialyl oligosaccharides as potential ligands for CD22 adhesion protein” (Bioorg Med Chem Lett, 1995).
# Activity calls are given as the source filed them. No cut-off for these calls is given here.
# Tests used:
# [1] = biological target: B-cell receptor CD22 (Homo sapiens) (UniProt P20273); experiment: Binding affinity against CD22 adhesion protein; no effect
# [2] = biological target: B-cell receptor CD22 (Homo sapiens) (UniProt P20273); experiment: Binding affinity against CD22 adhesion protein;no effect
# [3] = biological target: B-cell receptor CD22 (Homo sapiens) (UniProt P20273); experiment: Binding affinity against CD22 adhesion protein in ELISA competition assay;no effect
# Sequence of B-cell receptor CD22 (Homo sapiens) (P20273 whole entry): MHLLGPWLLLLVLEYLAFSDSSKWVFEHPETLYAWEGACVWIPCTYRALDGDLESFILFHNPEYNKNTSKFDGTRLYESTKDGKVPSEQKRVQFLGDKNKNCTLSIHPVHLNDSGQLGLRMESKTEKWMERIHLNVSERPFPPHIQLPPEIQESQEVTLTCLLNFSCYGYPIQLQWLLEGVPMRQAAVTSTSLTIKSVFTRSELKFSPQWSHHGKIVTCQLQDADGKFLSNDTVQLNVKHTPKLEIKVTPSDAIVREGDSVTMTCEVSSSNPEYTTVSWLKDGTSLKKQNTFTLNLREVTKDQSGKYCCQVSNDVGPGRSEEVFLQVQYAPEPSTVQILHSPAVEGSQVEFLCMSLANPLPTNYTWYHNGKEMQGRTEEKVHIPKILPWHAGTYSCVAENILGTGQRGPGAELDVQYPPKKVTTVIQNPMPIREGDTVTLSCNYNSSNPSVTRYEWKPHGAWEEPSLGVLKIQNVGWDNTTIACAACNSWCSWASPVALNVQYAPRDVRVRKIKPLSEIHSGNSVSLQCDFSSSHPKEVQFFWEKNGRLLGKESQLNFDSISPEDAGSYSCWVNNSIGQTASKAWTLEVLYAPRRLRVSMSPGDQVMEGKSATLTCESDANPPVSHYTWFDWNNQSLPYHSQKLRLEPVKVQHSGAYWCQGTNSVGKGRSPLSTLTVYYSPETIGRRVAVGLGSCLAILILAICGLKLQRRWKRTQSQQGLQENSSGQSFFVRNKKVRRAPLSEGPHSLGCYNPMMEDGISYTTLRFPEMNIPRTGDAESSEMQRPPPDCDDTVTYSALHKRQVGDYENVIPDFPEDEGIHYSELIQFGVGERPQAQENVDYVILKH
Activity [2],Compound,further results
–,O=C(CBr)OCC1OC(Br)C(OC(=O)c2ccccc2)C(OC(=O)c2ccccc2)C1OC(=O)c1ccccc1 (stereo not drawn),Activity [1]: inactive
inactive,CC(=O)OCC1OC(Br)C(OC(C)=O)C(OC(=O)CCl)C1OC(C)=O (stereo not drawn),–
inactive,CC(=O)N[C@@H]1[C@@H](Oc2ccccc2[N+](=O)[O-])O[C@@H](CO)[C@H](O)[C@@H]1O[C@@H]1O[C@@H](CO)[C@H](O)[C@H](OS(=O)(=O)O)[C@@H]1O,–
–,CC(=O)N[C@@H]1[C@@H](O)C[C@](OC[C@H]2O[C@@H](Oc3ccc([N+](=O)[O-])cc3)[C@H](NC(C)=O)[C@@H](O[C@@H]3O[C@H](CO)[C@H](O)[C@H](O)[C@H]3O)[C@@H]2O)(C(=O)O)O[C@H]1C(O)C(O)CO (stereo partly drawn),Activity [3]: inactive
inactive,CC(=O)N[C@@H]1[C@@H](O)C[C@](OC[C@H]2O[C@H](Oc3ccccc3[N+](=O)[O-])[C@H](NC(C)=O)[C@@H](O[C@@H]3O[C@H](COS(=O)(=O)O)[C@H](O)[C@H](O)[C@H]3O)[C@H]2O)(C(=O)O)O[C@H]1C(O)C(O)CO (stereo partly drawn),–
inactive,CC(=O)N[C@@H]1[C@@H](Oc2ccccc2[N+](=O)[O-])O[C@@H](COS(=O)(=O)O)[C@H](O)[C@@H]1O[C@@H]1O[C@@H](COS(=O)(=O)O)[C@H](O)[C@H](O)[C@@H]1O,–
inactive,CC(=O)N[C@@H]1[C@@H](Oc2ccccc2[N+](=O)[O-])O[C@@H](CO)[C@H](O)[C@@H]1O[C@@H]1O[C@@H](COS(=O)(=O)O)[C@H](O)[C@H](O)[C@@H]1O,–
–,CC(=O)N[C@@H]1[C@@H](O)C[C@](OC[C@H]2O[C@@H](Oc3ccc([N+](=O)[O-])cc3)[C@H](NC(C)=O)[C@@H](O[C@@H]3O[C@H](COS(=O)(=O)O)[C@H](O)[C@H](O)[C@H]3O)[C@@H]2O)(C(=O)O)O[C@H]1C(O)C(O)CO (stereo partly drawn),Activity [3]: inactive
